{"source": "patent US20120184586A1", "about": "“DESFERRITHIOCIN POLYETHER ANALOGUES AND USES THEREOF” (University of Florida Research Foundation, Inc., priority 2009, published 2012)", "key": {"[1]": {"system": "iron-overloaded Cebus apella primates", "settings": "cited from earlier work"}, "[2]": {"system": "non-iron-overloaded, bile duct-cannulated rats", "settings": "historical data, cited from earlier work"}, "[3]": {"settings": "2:1 complex with Fe(III); cited from earlier work"}, "[4]": {"settings": "historical findings from references; cited from earlier work"}, "[5]": {"system": "non-iron-overloaded, bile duct-cannulated rats", "assay": "Chelator-induced iron clearance (ICE, biliary ferrokinetics) in non-iron-overloaded, bile duct-cannulated rodents", "assay_type": "in vivo, rat (male Sprague-Dawley)", "settings": "for time of maximum iron clearance (MIC), biliary ferrokinetics / time until iron excretion is over / returned to baseline, biliary ferrokinetics / ICE (iron-clearing efficiency), rodents: bile duct-cannulated rats; for time of maximum iron clearance (MIC), biliary ferrokinetics / time until iron excretion is over / returned to baseline, biliary ferrokinetics: 300 μmol/kg PO; for ICE relative to parent ligand 2 (times) / ICE relative to trioxa polyether 4 (times): rodents, po 300 μmol/kg"}, "[6]": {"settings": "trial abandoned by Genzyme; cited from earlier work"}, "[7]": {"system": "iron-overloaded Cebus apella primates", "assay": "Chelator-induced iron clearance (ICE) in iron-overloaded Cebus apella primates", "assay_type": "in vivo", "settings": "for performance ratio (PR), mean ICEprimates/ICErodents: current study; for ICE (iron-clearing efficiency), primates: iron-overloaded C. apella", "protocol": "The drugs were administered in capsules (6, 7), solubilized in either 40% Cremophor RH-40/water (1), distilled water (4), or were given as their monosodium salts, prepared by the addition of 1 equiv of NaOH to a suspension of the free acid in distilled water (2, 3, 5). The efficiency of each compound was calculated by subtracting the 24-h iron excretion of control animals from the iron excretion of the treated animals. The number was then divided by the theoretical output; the result is expressed as a percent. […] The relative percentages of the iron excreted in the bile and urine are in brackets. ^cIn the primates [n=4 (1, 3, 4, 5, 6 in capsules, 7) or 7 (2, 6 as the monosodium salt)], the chelators were given po at a dose of 75 μmol/kg (5-7) or 150 μmol/kg (1-4). The drugs were administered in capsules (6^d, 7), solubilized in either 40% Cremophor RH-40/water (1, 3), distilled water (4), or were given as their monosodium salts, prepared by the addition of 1 equiv of NaOH to a suspension of the free acid in distilled water (2, 5, 6^e).\nIron chelators in a Cebus apella monkey model. […] Briefly, the monkeys are iron overloaded with iron dextran administered intravenously to result in an iron loading of about 500 mg per kg of body weight. At least 20 half-lives, 60 days, elapse before the animals are used in experiments evaluating iron chelators. The iron chelators are suspended in vehicle and administered either p.o. or s.c. Fecal and urine samples are collected at 24 hour intervals beginning 4 days prior to the administration of an iron chelator and continued for 5 days after the chelator is administered. Iron concentrations in stool and urine are determined by flame atomic absorption spectroscometry. Iron chelator efficiency is calculated by dividing the net iron clearance [total iron excretion (stool plus urine) minus background] by the theoretical iron clearance and multiplying by 100. The theoretical clearance of the iron chelator is generated on the basis of a 2:1 ligand/iron complex.\nDrug preparation and administration. In the iron clearing experiments, the rats were given 5-7 orally at a dose of 300 μmol/kg. Ligand 5 was given by gavage as its monosodium salt (prepared by the addition of 1 equiv of NaOH to a suspension of the free acid in distilled water), while 6 and 7 were given in capsules. The primates were given 5-7 orally at a dose of Ligand 5 was given to the primates by gavage as its monosodium salt. Analogue 6 was given to the monkeys by gavage as its monosodium salt, as well as in capsules. Ligand 7 was given to the monkeys in capsules."}, "rats": {"system": "rats", "assay": "Tissue iron decorporation in rats after 10 days of oral dosing", "assay_type": "in vivo, rat (male Sprague-Dawley)", "description": "Tissue iron decorporation: As described above, rodents were given acid 6 or 7 orally at a dose of 384 μmol/kg/day×10 days. Ethyl ester 7 was also given at a dose of 192 μmol/kg/d×10 days. On day 11, the animals were euthanized and the kidney, liver, pancreas, and heart were removed.\nMale Sprague-Dawley rats (300-350 g) were fasted overnight and were given the chelators first thing in the morning. […] Ligand 6 was given to the rats orally once daily at a dose of 384 μmol/kg/d×10 d. Note that this dose is equivalent to 100 mg/kg/day of the DFT sodium salt. The chelator (6) was administered orally in gelatin capsules (n=5), or by gavage as its monosodium salt (n=10). The ethyl ester (7) was administered orally in capsules once daily at a dose of 192 (n=6) or 384 μmol/kg/d (n=5)×10 d. Age-matched rats (n=12) served as untreated controls. The rats were euthanized 24 h post-drug (day 11) and extensive tissues were collected for histopathological analysis. Samples of the kidney, liver, heart and pancreas were reserved and assessed for their iron content.\nThe initial step in the tissue preparation involved removing any obvious membranes or fat. A sample of each tissue (300-350 mg) was weighed and transferred to acid-washed hydrolysis (pressure) tubes. Note that the same region of each tissue was always utilized. […] The tubes were then sealed and placed in a 120° C. oil bath for 5 h; the tubes were vented as necessary. Then, the tubes were removed from the oil bath and allowed to cool to room temperature. The temperature of the oil bath was decreased to 100° C. Once the samples were cooled, 0.7 mL of hydrogen peroxide (30%) was added to the hydrolysis tube. The samples were placed back in the oil bath and cooked overnight. The samples were then removed from the oil bath and allowed to cool to room temperature. The hydrolysis tubes were vortexed and the digested samples were poured into 50-mL volumetric flasks. The samples were brought to volume using distilled water. Finally, the samples were poured into a syringe and filtered using 0.45μ 30 mm, Teflon syringe filters. Iron concentrations were determined by flame absorption spectroscopy as presented in other publications.^40,41"}, "[8]": {"assay": "Hydrolysis of ester 7 to acid 6 in rat plasma", "assay_type": "in vitro ADME", "settings": "37° C., solubilized in DMSO", "experimental": "(§1) The profound difference between the ICE of the parent acid chelator 6 versus that of the ester 7 in rodents and primates is consistent with two possible explanations: 1) The ester is poorly absorbed from the gastrointestinal (GI) tract in the primates, or 2) The primate non-specific serum esterases simply may not cleave ester 7 to the active chelator acid 6. An experiment was performed using rat and monkey plasma in an attempt to determine if the relatively poor ICE of 7 in the primates was due to interspecies differences in hydrolysis. When 7 was solubilized in DMSO and incubated at 37° C. with rat plasma, all of the ester had been converted to the active acid 6 within 1-2 h. This was also the case when the experiment was carried out with plasma from Cebus apella monkeys. Thus, there is no difference in the hydrolysis of 7 between the rats and the primates. Therefore, the poor ICE of 7 in the monkeys is consistent with the idea that the ester is absorbed much more effectively from the GI tract of the rodents than from the GI tract of the primates. Control experiments were also performed in which saline was used in place of the rat or monkey plasma.\n(§2) Plasma analytical methods. […] The chelator concentrations were calculated from the peak area fitted to calibration curves by non-weighted least-squares linear regression with Shimadzu CLASS-NP 7.4 Chromatography Software. […]"}, "[9]": {"assay": "Hydrolysis of ester 7 to acid 6 in Cebus apella monkey plasma", "assay_type": "in vitro ADME", "settings": "37° C., solubilized in DMSO", "experimental": "as §1, §2"}, "[10]": {"assay": "Control incubation of ester 7 in saline in place of plasma", "assay_type": "physicochemical", "settings": "solubilized in DMSO", "experimental": "as §1\nThe ethyl ester (7) was solubilized in DMSO and further diluted with distilled water to provide a 100 μM solution. A 25 μL aliquot of the drug solution was added to centrifuge tubes containing 100 μL of rat or primate plasma. […]"}, "[11]": {"assay": "Octanol/water partition (log Papp), shake flask direct method, Tris buffer pH 7.4", "settings": "from log Papp values", "protocol": "The efficiency of each compound was calculated by subtracting the 24-h iron excretion of control animals from the iron excretion of the treated animals. The number was then divided by the theoretical output; the result is expressed as a percent. […] The relative percentages of the iron excreted in the bile and urine are in brackets. ^cIn the primates [n=4 (1, 3, 4, 5, 6 in capsules, 7) or 7 (2, 6 as the monosodium salt)], the chelators were given po at a dose of 75 μmol/kg (5-7) or 150 μmol/kg (1-4).\nThe partition values between octanol and water (at pH 7.4, Tris buffer) were determined using a “shake flask” direct method of measuring log Papp values.^52 The fraction of drug in the octanol is then expressed as log Papp."}, "[12]": {"settings": "bile duct-cannulated rats, po 300 μmol/kg"}, "[13]": {"settings": "po 75 μmol/kg by gavage as monosodium salt"}, "[14]": {"settings": "384 μmol/kg/day × 10 days po as sodium salt"}, "[15]": {"settings": "384 μmol/kg/day × 10 days po in capsules"}, "[16]": {"settings": "192 μmol/kg/d × 10 days po in capsules"}}, "note": "Several values for one entry are separate records, joined by “and”; a condition that tells them apart may be missing. Identical values can stand only once. Entries after “also recorded” stand apart in the source; their conditions may differ. Like-named read-outs stand apart in the source and are kept apart here."}
{"smiles": "COCCOCCOCCOc1ccc(O)c(C2=NC(C)(C(=O)O)CS2)c1", "note": "(single isomer, unassigned) [5′-isomer of 4]", "values": [{"measurement": "performance ratio (PR), mean ICEprimates/ICErodents", "setting": "[1]; previously reported (ref 46)", "result": 1}, {"measurement": "ICE (iron-clearing efficiency), primates", "setting": "[1]; previously reported, dose not stated", "result": "8.1±2.8", "unit": "%"}]}
{"smiles": "C[C@]1(C(=O)O)CSC(c2ncccc2O)=N1", "note": "[ligand 1, (S)-4,5-dihydro-2-(3-hydroxy-2-pyridinyl)-4-methyl-4-thiazolecarboxylic acid]", "values": [{"measurement": "ICE (iron-clearing efficiency), rodents", "setting": "[2]; bile duct-cannulated rodent model, po 150 μmol/kg", "result": 5.5, "unit": "%"}, {"measurement": "ICE (iron-clearing efficiency), primates", "setting": "[1]; iron-overloaded C. apella, po 150 μmol/kg, historical data", "result": 16, "unit": "%"}, {"measurement": "log β2", "setting": "[3]", "result": 29.6}, {"measurement": "nephrotoxicity", "setting": "[4]", "result": "severely nephrotoxic"}]}
{"smiles": "C[C@]1(C(=O)O)CSC(c2ccc(O)cc2O)=N1", "note": "[ligand 2, (S)-2-(2,4-dihydroxyphenyl)-4,5-dihydro-4-methyl-4-thiazolecarboxylic acid]", "values": [{"measurement": "time of maximum iron clearance (MIC), biliary ferrokinetics", "setting": "[5]", "result": 3, "unit": "h"}, {"measurement": "time until iron excretion is over / returned to baseline, biliary ferrokinetics", "setting": "[5]", "result": 9, "unit": "h"}, {"measurement": "ICE (iron-clearing efficiency), rodents", "setting": "[2]; [12]", "result": "1.1±0.8", "unit": "%"}, {"measurement": "clinical trial outcome", "setting": "[6]", "result": "abandoned by Genzyme because of renal toxicity"}]}
{"smiles": "COc1ccc(C2=N[C@@](C)(C(=O)O)CS2)c(O)c1", "note": "[ligand 3, (S)-4,5-dihydro-2-(2-hydroxy-4-methoxyphenyl)-4-methyl-4-thiazolecarboxylic acid]", "values": [{"measurement": "nephrotoxicity", "setting": "[4]", "result": "very nephrotoxic; also recorded: unacceptably nephrotoxic"}]}
{"smiles": "COCCOCCOCCOc1ccc(C2=N[C@@](C)(C(=O)O)CS2)c(O)c1", "note": "[ligand 4, (S)-4,5-dihydro-2-[2-hydroxy-4-(3,6,9-trioxadecyloxy)phenyl]-4-methyl-4-thiazolecarboxylic acid, reference compound]", "values": [{"measurement": "time of maximum iron clearance (MIC), biliary ferrokinetics", "setting": "[5]", "result": 3, "unit": "h"}, {"measurement": "time until iron excretion is over / returned to baseline, biliary ferrokinetics", "setting": "[5]", "result": 12, "unit": "h"}, {"measurement": "ICE relative to parent ligand 2 (times)", "setting": "[5]", "result": "five times greater"}, {"measurement": "ICE relative to longer analogue 5 (times)", "setting": "[7]; primates", "result": 2.5}, {"measurement": "ICE (iron-clearing efficiency), rodents", "setting": "[2]; [12]", "result": "5.5±1.9", "unit": "%"}, {"measurement": "nephrotoxicity", "setting": "[4]", "result": "virtually absent of any nephrotoxicity"}]}
{"smiles": "COCCOCCOCCOCCOc1ccc(C2=N[C@@](C)(C(=O)O)CS2)c(O)c1", "note": "[ligand 5, (S)-4,5-dihydro-2-[2-hydroxy-4-(3,6,9,12-tetraoxamidecyloxy)phenyl]-4-methyl-4-thiazolecarboxylic acid]", "values": [{"measurement": "time of maximum iron clearance (MIC), biliary ferrokinetics", "setting": "[5]", "result": 6, "unit": "h"}, {"measurement": "time until iron excretion is over / returned to baseline, biliary ferrokinetics", "setting": "[5]", "result": 24, "unit": "h"}, {"measurement": "ICE (iron-clearing efficiency), rodents", "setting": "[5]; po 300 μmol/kg by gavage as monosodium salt", "result": "12.0±1.5", "unit": "%"}, {"measurement": "ICE relative to parent ligand 2 (times)", "setting": "[5]", "result": "~11"}, {"measurement": "ICE relative to trioxa polyether 4 (times)", "setting": "[5]", "result": "twice as effective"}, {"measurement": "performance ratio (PR), mean ICEprimates/ICErodents", "setting": "[7]", "result": 0.82}, {"measurement": "ICE (iron-clearing efficiency), primates", "setting": "[7]; [13]", "result": "9.8±1.9", "unit": "%"}]}
{"smiles": "COCCOCCOc1ccc(C2=N[C@@](C)(C(=O)O)CS2)c(O)c1", "note": "[ligand 6, (S)-4,5-dihydro-2-[2-hydroxy-4-(3,6-dioxaheptyloxy)phenyl]-4-methyl-4-thiazolecarboxylic acid]", "values": [{"measurement": "ICE (iron-clearing efficiency), rodents", "setting": "[5]; po 300 μmol/kg in capsules", "result": "> 26", "unit": "%"}, {"measurement": "ICE (iron-clearing efficiency), rodents", "setting": "[5]; po 300 μmol/kg in capsules, listed as 6", "result": "26.7±4.7", "unit": "%"}, {"measurement": "ICE relative to trioxa polyether 4 (times)", "setting": "[5]", "result": "nearly five times greater"}, {"measurement": "performance ratio (PR), mean ICEprimates/ICErodents", "setting": "[7]", "result": 1.0}, {"measurement": "ICE (iron-clearing efficiency), primates", "setting": "[7]; [13]", "result": "28.7±12.4", "unit": "%"}, {"measurement": "ICE (iron-clearing efficiency), primates", "setting": "[7]; po 75 μmol/kg in capsules", "result": "26.3±9.9% and > 26%"}, {"measurement": "decrease of cardiac iron vs untreated controls", "setting": "rats; [14]", "result": 9.9, "unit": "%"}, {"measurement": "reduction of liver iron vs untreated controls", "setting": "rats; [14]", "result": "> 35", "unit": "%"}, {"measurement": "reduction of pancreatic iron vs untreated controls", "setting": "rats; [14]", "result": "significant reduction in pancreatic iron"}, {"measurement": "reduction of renal iron content vs untreated controls", "setting": "rats; [14]", "result": 24.8, "unit": "%"}, {"measurement": "decrease of cardiac iron vs untreated controls", "setting": "rats; [15]", "result": 6.9, "unit": "%"}, {"measurement": "reduction of liver iron vs untreated controls", "setting": "rats; [15]", "result": "> 35", "unit": "%"}, {"measurement": "reduction of pancreatic iron vs untreated controls", "setting": "rats; [15]", "result": "but not when it was dosed in capsules"}, {"measurement": "reduction of renal iron content vs untreated controls", "setting": "rats; [15]", "result": 7.4, "unit": "%"}]}
{"smiles": "CCOC(=O)[C@@]1(C)CSC(c2ccc(OCCOCCOC)cc2O)=N1", "note": "[ligand 7, ethyl (S)-4,5-dihydro-2-[2-hydroxy-4-(3,6-dioxaheptyloxy)phenyl]-4-methyl-4-thiazolecarboxylate]", "values": [{"measurement": "ICE (iron-clearing efficiency), rodents", "setting": "[5]; po 300 μmol/kg in capsules", "result": "25.9±6.5", "unit": "%"}, {"measurement": "ICE relative to parent ligand 2 (times)", "setting": "[5]", "result": "approximately 24"}, {"measurement": "performance ratio (PR), mean ICEprimates/ICErodents", "setting": "[7]", "result": 0.33}, {"measurement": "ICE (iron-clearing efficiency), primates", "setting": "[7]; po 75 μmol/kg in capsules", "result": "8.8±2.2", "unit": "%"}, {"measurement": "ICE relative to acid 6", "setting": "[7]; primates", "result": "only one third"}, {"measurement": "time for conversion of all of the ester to the active acid 6", "setting": "[8]", "result": "1 to 2", "unit": "h"}, {"measurement": "time for conversion of all of the ester to the active acid 6", "setting": "[9]", "result": "1 to 2", "unit": "h"}, {"measurement": "stability of the ester in saline", "setting": "[10]", "result": "all of the drug remained in the form of the ester"}, {"measurement": "decrease of cardiac iron vs untreated controls", "setting": "rats; [16]", "result": "Neither dose was associated with a reduction"}, {"measurement": "reduction of liver iron vs untreated controls", "setting": "rats; [16]", "result": 27, "unit": "%"}, {"measurement": "reduction of pancreatic iron vs untreated controls", "setting": "rats; [16]", "result": "Neither dose was associated with a reduction"}, {"measurement": "reduction of renal iron content vs untreated controls", "setting": "rats; [16]", "result": 12.6, "unit": "%"}, {"measurement": "decrease of cardiac iron vs untreated controls", "setting": "rats; [15]", "result": "Neither dose was associated with a reduction"}, {"measurement": "reduction of liver iron vs untreated controls", "setting": "rats; [15]", "result": 59.1, "unit": "%"}, {"measurement": "reduction of pancreatic iron vs untreated controls", "setting": "rats; [15]", "result": "Neither dose was associated with a reduction"}, {"measurement": "reduction of renal iron content vs untreated controls", "setting": "rats; [15]", "result": 32.1, "unit": "%"}, {"measurement": "fold difference in partition", "setting": "[11]; 7 vs 1", "result": "greater than 58.000 fold"}, {"measurement": "times more lipophilic than the parent 2", "setting": "[11]; 7 vs 2", "result": "11,220"}]}
